Laboratory results published in US9255103B2, “Substituted pyrazolo[1,5-a]pyrazines as mGluR5 receptor modulators” (Vanderbilt University, priority 2010, dated 2016).
Read-outs that look alike come from different tables or passages of the source.

Legend:
[1] = target: human mGluR5a receptor (Homo sapiens, UniProt P41594); assay: Cell-based functional Ca2+ mobilization assay (FDSS), potentiation of glutamate EC20 response in H10H cell line; settings: for Emax: percent of maximal glutamate response, human mGluR5 HEK cells; for EC50 / pEC50: HEK cells transfected with human mGluR5 (H10H), presence of glutamate EC20
Method: Human embryonic kidney (HEK) cells transfected with rat mGluR5 were plated in clear bottom assay plates for assay in a Functional Drug Screening System (FDSS). In the alternative assay, HEK cells transfected with human mGluR5 (H10H cell line) were plated for assay in the FDSS. […] The cells were loaded with a Ca^2+-sensitive fluorescent dye (e.g., Fluo-4), and the plates were washed and placed in the FDSS instrument. After establishment of a fluorescence baseline for twelve seconds, the compounds of the present invention were added to the cells, and the response in cells was measured. Alternatively, in various further aspects, after establishment of a fluorescence baseline for about three seconds, the compounds of the present invention were added to the cells, and the response in cells was measured. Five minutes later, an mGluR5 agonist (e.g., glutamate, 3,5-dihydroxyphenylglycine, or quisqualate) was added to the cells, and the response of the cells was measured.
The above described assay operated in two modes. In the first mode, a range of concentrations of the present compounds were added to cells, followed by a single fixed concentration of agonist. If a compound acted as a potentiator, an EC50 value for potentiation and a maximum extent of potentiation by the compound at this concentration of agonist was determined by non-linear curve fitting. In the second mode, several fixed concentrations of the present compounds were added to various wells on a plate, followed by a range of concentrations of agonist for each concentration of present compound; the EC50 values for the agonist at each concentration of compound were determined by non-linear curve fitting. A decrease in the EC50 value of the agonist with increasing concentrations of the present compounds (a leftward shift of the agonist concentration-response curve) is an indication of the degree of mGluR5 potentiation at a given concentration of the present compound. An increase in the EC50 value of the agonist with increasing concentrations of the present compounds (a rightward shift of the agonist concentration-response curve) is an indication of the degree of mGluR5 antagonism at a given concentration of the present compound. The second mode also indicates whether the present compounds also affect the maximum response to mGluR5 to agonists.
The mGluR5 activity was determined using the metabotropic glutamate receptor activity assays in human embryonic kidney cells as described herein, wherein the human embryonic kidney cells were transfected with human mGluR5. The compounds in Table 1 were synthesized with methods identical or analogous to those shown herein. The requisite starting materials were commercially available, described in the literature, or readily synthesized by one skilled in the art of organic synthesis.
Human mGluR5a cDNA in pCMV6-XL6 mammalian expression plasmid was purchased from OriGene Technologies, Inc. (catalogue number SC326357) and subcloned into pcDNA3.1(−). Human embryonic kidney (HEK)293A cells were then transfected with human mGluR5a pcDNA3.1(−) using LipofectAmine2000 (Invitrogen) and monoclones were selected and tested for functional response using a Ca^2+ mobilization assay. Monoclones were named for the species (“H” for human) plus the location on the plate (e.g. “10H”).
HEK cells transfected with the human mGluR5a receptor (H10H cell line) were plated at 15,000 cells/well in clear-bottomed poly-D-lysine-coated assay plates (BD Falcon) in glutamate-glutamine-free growth medium and incubated overnight at 37° C. and 5% CO2. The following day, the growth medium was removed and the cells were washed with assay buffer containing 1× Hank's balanced salt solution (Invitrogen, Carlsbad, Calif.), 20 mM HEPES, 2.5 mM probenecid, pH 7.4 and left with 20 μL of this reagent.

[2] = HEK293, maximum average response at a single concentration, read-out: Emax
[3] = maximum average response at a single concentration

Chain of human mGluR5a receptor (P41594 21-1180 isoform P41594-2 limits assumed): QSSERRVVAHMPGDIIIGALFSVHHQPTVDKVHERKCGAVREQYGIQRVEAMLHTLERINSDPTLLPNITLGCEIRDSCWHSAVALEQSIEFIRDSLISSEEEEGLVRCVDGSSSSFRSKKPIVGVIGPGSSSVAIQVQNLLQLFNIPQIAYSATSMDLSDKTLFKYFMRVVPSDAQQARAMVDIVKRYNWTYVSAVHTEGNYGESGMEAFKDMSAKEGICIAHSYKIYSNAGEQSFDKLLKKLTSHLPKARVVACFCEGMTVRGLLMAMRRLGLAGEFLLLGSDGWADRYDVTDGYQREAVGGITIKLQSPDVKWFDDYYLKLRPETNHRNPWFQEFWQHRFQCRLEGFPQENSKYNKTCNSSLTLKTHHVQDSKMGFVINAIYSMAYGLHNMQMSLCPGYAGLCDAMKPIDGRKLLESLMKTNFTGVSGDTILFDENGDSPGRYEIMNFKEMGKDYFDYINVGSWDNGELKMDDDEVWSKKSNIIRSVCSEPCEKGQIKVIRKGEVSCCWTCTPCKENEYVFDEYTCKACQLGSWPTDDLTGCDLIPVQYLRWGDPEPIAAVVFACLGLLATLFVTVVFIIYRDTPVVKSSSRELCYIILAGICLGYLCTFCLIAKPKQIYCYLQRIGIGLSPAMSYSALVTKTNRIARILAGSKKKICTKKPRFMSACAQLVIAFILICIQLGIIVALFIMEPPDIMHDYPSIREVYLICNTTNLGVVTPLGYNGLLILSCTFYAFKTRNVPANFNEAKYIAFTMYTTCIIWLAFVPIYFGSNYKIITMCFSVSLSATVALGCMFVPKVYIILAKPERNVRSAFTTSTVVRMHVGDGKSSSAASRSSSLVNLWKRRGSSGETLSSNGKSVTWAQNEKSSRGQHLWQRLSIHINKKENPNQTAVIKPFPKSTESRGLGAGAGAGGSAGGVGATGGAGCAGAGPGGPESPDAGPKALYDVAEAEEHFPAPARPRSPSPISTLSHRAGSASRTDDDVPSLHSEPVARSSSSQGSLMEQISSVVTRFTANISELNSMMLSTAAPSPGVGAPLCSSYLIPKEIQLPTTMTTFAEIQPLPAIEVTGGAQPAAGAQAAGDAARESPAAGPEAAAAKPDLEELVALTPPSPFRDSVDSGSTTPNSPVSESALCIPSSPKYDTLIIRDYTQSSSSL

Compound | melting point | Emax [1, 2] | EC50 ([1]; read-out: EC50) | pEC50 ([1]; concentration in mol/L) | EC50 ([1]; concentration in mol/L, read-out: pEC50 (converted)) | Emax [1, 3]
CC1CN(C(=O)c2ccc(F)cc2)Cc2cc(COc3ccccc3)nn21 (racemic) [Compound 16] | 126.5 °C | 77% | 172 nM | – | – | –
CC1Cn2nc(COc3ccccc3)cc2CN1C(=O)c1ccc(F)cc1 (racemic) [Compound 17] | – | 81% | 673 nM | – | – | –
O=C(c1ccc(F)cc1)N1CCn2nc(COc3ccccc3)cc2C1C(F)(F)F (racemic) [Compound 53] | 53.1 °C | 67% | 2630 nM | – | – | –
CC(Oc1ccccc1)c1cc2n(n1)CCN(C(=O)c1ccc(F)cc1)C2 (racemic) [Compound 54] | – | 25% | > 30200 nM | – | – | –
O=C(c1ccc(F)cc1)N1CCn2nc(COc3ccccc3)cc2C1 [Compound 1] | 106 °C | 67% | 161 nM | 6.79 | – | –
O=C(c1ccccc1F)N1CCn2nc(COc3ccccc3)cc2C1 [Compound 2] | – | 76% | 201 nM | 6.70 | – | –
O=C(c1cccc(F)c1)N1CCn2nc(COc3ccccc3)cc2C1 [Compound 3] | – | 66% | 169 nM | 6.77 | – | –
O=C(c1ccc(F)c(F)c1)N1CCn2nc(COc3ccccc3)cc2C1 [Compound 4] | 100.6 °C | 70% | 414 nM | 6.38 | – | –
O=C(c1cc(F)cc(F)c1)N1CCn2nc(COc3ccccc3)cc2C1 [Compound 5] | – | 50% | 79.6 nM | 7.10 | – | –
O=C(c1c(F)cccc1F)N1CCn2nc(COc3ccccc3)cc2C1 [Compound 6] | 95.8 °C | 74% | 292 nM | 6.53 | – | –
O=C(c1cccc(F)c1F)N1CCn2nc(COc3ccccc3)cc2C1 [Compound 7] | – | 58% | 406 nM | 6.39 | – | –
O=C(c1ccc(F)cc1F)N1CCn2nc(COc3ccccc3)cc2C1 [Compound 8] | – | 78% | 208 nM | 6.68 | – | –
O=C(c1ccccc1)N1CCn2nc(COc3cccc(F)c3)cc2C1 [Compound 9] | 159.2 °C | 72% | 257 nM | 6.59 | – | –
O=C(c1cccc(F)c1)N1CCn2nc(COc3cccc(F)c3)cc2C1 [Compound 10] | – | 69% | 269 nM | 6.57 | – | –
O=C(c1ccc(F)cc1F)N1CCn2nc(COc3cccc(F)c3)cc2C1 [Compound 11] | 79.7 °C | 82% | 273 nM | 6.56 | – | –
O=C(c1ccc(F)cc1)N1CCn2nc(COc3cccc(F)c3)cc2C1 [Compound 12] | 126.9 °C | 69% | – | – | – | –
O=C(c1ccc(F)c(F)c1)N1CCn2nc(COc3cccc(F)c3)cc2C1 [Compound 13] | 112.7 °C | 75% | 587 nM | 6.23 | – | –
Cc1cccnc1C(=O)N1CCn2nc(COc3cccc(F)c3)cc2C1 [Compound 14] | 125.4 °C | 51% | > 10000 nM | <5.00 | – | –
Cc1ccc(C(=O)N2CCn3nc(COc4cccc(F)c4)cc3C2)cn1 [Compound 15] | 88.2 °C | 30% | > 30200 nM | <4.52 | – | –
CC1(C)CN(C(=O)c2ccc(F)cc2)Cc2cc(COc3ccccc3)nn21 [Compound 18] | – | 66% | 256 nM | 6.59 | – | –
O=C(c1ncccc1F)N1CCn2nc(COc3cccc(F)c3)cc2C1 [Compound 20] | 114 °C | 65% | 2950 nM | 5.53 | – | –

Compound | melting point | Emax [1, 2] | EC50 ([1]; read-out: EC50) | pEC50 ([1]; concentration in mol/L) | EC50 ([1]; concentration in mol/L, read-out: pEC50 (converted)) | Emax [1, 3]
O=C(c1ncc(F)cc1F)N1CCn2nc(COc3cccc(F)c3)cc2C1 [Compound 21] | > 300 °C | 77% | 1280 nM | 5.89 | – | –
Cc1ncccc1C(=O)N1CCn2nc(COc3cccc(F)c3)cc2C1 [Compound 22] | – | 34% | 2910 nM | 5.53 | – | –
O=C(c1cncc(F)c1)N1CCn2nc(COc3cccc(F)c3)cc2C1 [Compound 23] | > 300 °C | 58% | 1370 nM | – | 1510 nM | –
Cc1cccc(C(=O)N2CCn3nc(COc4cccc(F)c4)cc3C2)n1 [Compound 24] | 88 °C | 58% | 3030 nM | 5.51 | – | –
N#Cc1cccc(C(=O)N2CCn3nc(COc4ccccc4)cc3C2)c1 [Compound 25] | – | 60% | 457 nM | 6.34 | – | –
N#Cc1cc(F)cc(C(=O)N2CCn3nc(COc4ccccc4)cc3C2)c1 [Compound 26] | 109.8 °C | 52% | 83 nM | 7.08 | – | –
N#Cc1ccc(C(=O)N2CCn3nc(COc4ccccc4)cc3C2)cc1F [Compound 27] | 60.3 °C | 23% | > 30200 nM | <4.52 | – | –
O=C(c1cnccn1)N1CCn2nc(COc3cccc(F)c3)cc2C1 [Compound 34] | – | 60% | 3020 nM | 5.52 | – | –
Cc1ncc(C(=O)N2CCn3nc(COc4cccc(F)c4)cc3C2)cn1 [Compound 37] | – | 12% | > 30200 nM | <4.52 | – | –
O=C(c1ccc(F)cc1)N1CCn2nc(COc3ccc(F)cc3)cc2C1 [Compound 38] | – | 58% | 295 nM | 6.53 | – | –
CC1CN(C(=O)c2ccc(F)cc2)Cc2cc(COc3ccccc3)nn21 (centres unmarked) [Compound 40] | – | 58% | 708 nM | 6.15 | – | –
CC1CN(C(=O)c2ccc(F)cc2)Cc2cc(COc3ccccc3)nn21 (centres unmarked) [Compound 41] | – | – | 162 nM | 6.79 | – | 74%
CC1CN(C(=O)c2cccc(F)c2)Cc2cc(COc3ccccc3)nn21 (centres unmarked) [Compound 42] | – | 69% | 138 nM | 6.86 | – | –
CC1CN(C(=O)c2cc(F)cc(C#N)c2)Cc2cc(COc3ccccc3)nn21 (centres unmarked) [Compound 44] | – | 66% | 692 nM | 6.16 | – | –
CC1Cn2nc(COc3ccccc3)cc2CN1C(=O)c1cccc(F)c1 (centres unmarked) [Compound 47] | – | 52% | 1070 nM | 5.97 | – | –
CC1Cn2nc(COc3ccccc3)cc2CN1C(=O)c1cccc(F)c1 (centres unmarked) [Compound 48] | – | – | 490 nM | 6.31 | – | 67%
CC1Cn2nc(COc3ccccc3)cc2CN1C(=O)c1cc(F)cc(C#N)c1 (centres unmarked) [Compound 51] | – | 56% | 759 nM | 6.12 | – | –
CC1Cn2nc(COc3ccccc3)cc2CN1C(=O)c1cc(F)cc(C#N)c1 (centres unmarked) [Compound 52] | – | – | > 10000 nM | <5.00 | – | 69%
O=C(c1ccc(F)cc1)N1CCn2nc(COc3ccccc3)c(F)c2C1 [Compound 56] | – | 62% | 550 nM | 6.26 | – | –
Nc1c(COc2ccccc2)nn2c1CN(C(=O)c1ccc(F)cc1)CC2 [Compound 58] | – | 51% | 4570 nM | 5.34 | – | –
COc1c(COc2ccccc2)nn2c1CN(C(=O)c1ccc(F)cc1)CC2 [Compound 59] | – | 15% | 1820 nM | 5.74 | – | –
